In brackets after ≈: the same amount, converted by molar mass. Several values for one entry are separate records, joined by “and”; a condition that tells them apart may be missing. Identical values can stand only once. Like-named read-outs stand apart in the source and are kept apart here.
Key:
[1] = dead/total animals; 22 at 25 mg/kg i.p., 5-fluorouracil at 22 mg/kg i.p., day 1-9
[2] = tested on: Ehrlich ascites carcinoma (EAC) cells; test: In-vivo activity in Ehrlich solid tumor model; parameters: species or system swiss mice; conditions: 22 at 25 mg/kg i.p., 5-fluorouracil at 22 mg/kg i.p., day 1-9; for Day 13 % Tumor Growth Inhibition: day 13, versus saline control
[3] = target: PI3K-alpha (Homo sapiens, UniProt P42336); test: PI3K-α assay (ADP-Glo); format: biochemical; conditions: for inhibition at 0.5 µM / % PI3Kα inhibition at 500 nM: at 500 nM (0.5 μM), NI = no inhibition at tested concentration; for inhibition at 0.5 µM: read-out: % PI3Kα inhibition at 500 nM; for % PI3Kα inhibition at 500 nM: 0.5 µM
Sequence of PI3K-alpha (P42336 whole entry, canonical isoform): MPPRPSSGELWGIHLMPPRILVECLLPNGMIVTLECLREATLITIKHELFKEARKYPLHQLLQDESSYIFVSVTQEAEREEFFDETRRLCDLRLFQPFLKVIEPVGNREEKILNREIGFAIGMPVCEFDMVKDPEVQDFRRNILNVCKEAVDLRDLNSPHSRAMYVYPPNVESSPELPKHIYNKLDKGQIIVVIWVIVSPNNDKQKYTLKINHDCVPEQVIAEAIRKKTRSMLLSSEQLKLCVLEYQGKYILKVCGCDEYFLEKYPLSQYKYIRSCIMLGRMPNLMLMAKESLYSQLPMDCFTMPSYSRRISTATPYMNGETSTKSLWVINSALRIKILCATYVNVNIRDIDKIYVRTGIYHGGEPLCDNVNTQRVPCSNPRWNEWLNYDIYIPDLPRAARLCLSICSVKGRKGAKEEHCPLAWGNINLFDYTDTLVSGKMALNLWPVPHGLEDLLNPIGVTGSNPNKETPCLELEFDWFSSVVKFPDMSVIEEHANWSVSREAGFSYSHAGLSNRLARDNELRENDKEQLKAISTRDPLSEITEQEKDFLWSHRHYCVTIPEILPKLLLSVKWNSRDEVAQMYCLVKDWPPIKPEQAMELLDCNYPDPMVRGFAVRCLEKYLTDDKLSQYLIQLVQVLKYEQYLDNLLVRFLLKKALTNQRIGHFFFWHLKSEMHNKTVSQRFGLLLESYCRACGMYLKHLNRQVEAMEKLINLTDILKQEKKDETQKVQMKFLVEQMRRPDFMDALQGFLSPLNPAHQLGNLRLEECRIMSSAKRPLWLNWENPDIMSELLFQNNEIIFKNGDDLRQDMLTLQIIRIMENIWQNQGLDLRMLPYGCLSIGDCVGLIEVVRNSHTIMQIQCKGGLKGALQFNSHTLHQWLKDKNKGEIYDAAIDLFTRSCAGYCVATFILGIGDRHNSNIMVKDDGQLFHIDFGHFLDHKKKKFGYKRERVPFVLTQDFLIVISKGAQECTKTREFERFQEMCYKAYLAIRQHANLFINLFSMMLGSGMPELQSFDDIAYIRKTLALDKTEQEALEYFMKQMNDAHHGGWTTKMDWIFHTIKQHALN
Sequence of PI3K-alpha (P27986 whole entry partner, canonical isoform): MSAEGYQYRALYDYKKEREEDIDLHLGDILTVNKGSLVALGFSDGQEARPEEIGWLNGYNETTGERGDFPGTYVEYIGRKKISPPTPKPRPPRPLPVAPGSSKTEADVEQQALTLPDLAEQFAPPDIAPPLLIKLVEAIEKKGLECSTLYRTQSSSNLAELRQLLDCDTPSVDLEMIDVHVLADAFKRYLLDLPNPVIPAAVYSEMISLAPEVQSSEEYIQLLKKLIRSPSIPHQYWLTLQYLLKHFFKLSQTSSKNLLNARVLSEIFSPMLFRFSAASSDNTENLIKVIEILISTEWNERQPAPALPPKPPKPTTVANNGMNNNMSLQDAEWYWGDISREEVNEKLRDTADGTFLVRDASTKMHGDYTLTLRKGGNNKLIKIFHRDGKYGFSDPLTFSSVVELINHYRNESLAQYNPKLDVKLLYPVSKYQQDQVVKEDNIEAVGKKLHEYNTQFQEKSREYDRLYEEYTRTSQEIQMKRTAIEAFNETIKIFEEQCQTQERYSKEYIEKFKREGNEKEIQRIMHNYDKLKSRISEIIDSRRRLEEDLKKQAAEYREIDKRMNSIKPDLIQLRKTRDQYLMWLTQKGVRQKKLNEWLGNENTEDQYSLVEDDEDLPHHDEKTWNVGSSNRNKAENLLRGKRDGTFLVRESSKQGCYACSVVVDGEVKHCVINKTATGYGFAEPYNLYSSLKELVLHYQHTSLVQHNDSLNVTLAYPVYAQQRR
Experimental: Compounds proposed in present invention were evaluated for their inhibitory activity on phosphoinositide-3-kinase-α and other isoforms (β, γ and δ). The preliminary screening was performed at 0.5 μM. The protocols used for these bioassays are as follows:
PI3K-alpha (diluted in 12.5 mM Glycine-NaOH (pH 8.5), 50 mM KCl, 2.5 mM MgCl2, 1 mM DTT, 0.05% CHAPS) is assayed in total volume of 20 μl containing 12.5 mM glycine-NaOH (pH 8.5), 50 mM KCl, 2.5 mM MgCl2, 1 mM DTT, 0.05% CHAPS, 0.01 mM ATP and 0.05 mM diC8 PIP2. The enzyme is assayed for 80 min after which 20 μl of ADP-Glo reagent is added. After a further incubation of 40 min, 40 μl of Kinase Detection Buffer is added. The assays are incubated for 40 min and then read on PerkinElmer Envision for 1 sec/well.

[4] = Thermodynamic aqueous solubility, 96-well plate protocol; format: physicochemical; conditions: for solubility: 25 °C, pH 7, water, thermodynamic from solid
Experimental: The thermodyanamic aqueous solubility was determined using 96-plate plate protocol (Bharate, S. S. and Vishwakarma, R. A. 2015, Bioorg. Med. Chem. Lett. 25, 1561-1567). […] Briefly, the compounds were loaded into 96-well plate in the form of methanolic solution, followed by evaporation of solvent to get 1, 2, 4, 8, 16, 25, 40, 80, 160 and 300 μg of compound in solid form in wells. Thereafter, 200 μl of dissolution medium was added to the wells and plates were shaken horizontally at 300 rpm for 4 h at room temperature (25±1° C.). The plates were covered with aluminium foil and were kept overnight at room temperature for equilibration. Later, the plates were centrifuged at 3000 rpm for 15 min (Jouan centrifuge BR4i). Supernatant (50 μl) was withdrawn into UV 96-well plates (Corning® 96 Well Clear Hat Bottom UV-Transparent Microplate) for analyses with microplate reader (Molecular Devices, USA) at corresponding λmax of the sample. The analysis was performed in triplicate for each compound. The solubility curve of concentration (μg/mL) vs absorbance was plotted to find out saturation point and the corresponding concentration was noted.

[5] = tested on: MIAPaCa-2 (pancreatic cancer); test: Cytotoxicity, MTT assay; format: cell-based; conditions: Homo sapiens, MIA PaCa-2, 48 h treatment
Experimental: (§1) Selected compounds proposed in the present invention were evaluated for their cytotoxic effect against panel of 3 cancer cell line viz. MIAPaCa-2 (pancreatic cancer), A-549 (lung cancer), and MDA-MB-231 (breast cancer) using MTT assay. In each well of a 96-well plate, 3×10^3 cells were grown in 100 μL of medium. After 24 h, each test molecules were added to achieve a final concentration of 10 to 0.01 μmol/L, respectively. After 48 h of treatment, 20 μL of 2.5 mg/mL MTT (Organics Research, Inc.) solution in phosphate buffer saline was added to each well. […], supernatant was removed and formazan crystals were dissolved in 200 μL of DMSO. Absorbance was then measured at 570 nm using an absorbance plate reader (Bio-Rad Microplate Reader). Data are expressed as the percentage of viable cells in treated relative to non-treated conditions. Each experiment was repeated thrice and data was expressed as mean±SD of three independent experiments (Mordant, P. et al., Mol. Cancer Ther. 2010, 9, 358).

[6] = tested on: MDA-MB-231 (breast cancer); test: Cytotoxicity, MTT assay; format: cell-based; conditions: Homo sapiens, 48 h treatment
Experimental: as §1

[7] = tested on: A-549 (lung cancer); test: Cytotoxicity, MTT assay; format: cell-based; conditions: Homo sapiens, A549, 48 h treatment
Experimental: as §1

[8] = target: PI3K-gamma (Homo sapiens, UniProt P48736); test: PI3K-γ assay (ADP-Glo); format: biochemical
Sequence of PI3K-gamma (P48736 whole entry): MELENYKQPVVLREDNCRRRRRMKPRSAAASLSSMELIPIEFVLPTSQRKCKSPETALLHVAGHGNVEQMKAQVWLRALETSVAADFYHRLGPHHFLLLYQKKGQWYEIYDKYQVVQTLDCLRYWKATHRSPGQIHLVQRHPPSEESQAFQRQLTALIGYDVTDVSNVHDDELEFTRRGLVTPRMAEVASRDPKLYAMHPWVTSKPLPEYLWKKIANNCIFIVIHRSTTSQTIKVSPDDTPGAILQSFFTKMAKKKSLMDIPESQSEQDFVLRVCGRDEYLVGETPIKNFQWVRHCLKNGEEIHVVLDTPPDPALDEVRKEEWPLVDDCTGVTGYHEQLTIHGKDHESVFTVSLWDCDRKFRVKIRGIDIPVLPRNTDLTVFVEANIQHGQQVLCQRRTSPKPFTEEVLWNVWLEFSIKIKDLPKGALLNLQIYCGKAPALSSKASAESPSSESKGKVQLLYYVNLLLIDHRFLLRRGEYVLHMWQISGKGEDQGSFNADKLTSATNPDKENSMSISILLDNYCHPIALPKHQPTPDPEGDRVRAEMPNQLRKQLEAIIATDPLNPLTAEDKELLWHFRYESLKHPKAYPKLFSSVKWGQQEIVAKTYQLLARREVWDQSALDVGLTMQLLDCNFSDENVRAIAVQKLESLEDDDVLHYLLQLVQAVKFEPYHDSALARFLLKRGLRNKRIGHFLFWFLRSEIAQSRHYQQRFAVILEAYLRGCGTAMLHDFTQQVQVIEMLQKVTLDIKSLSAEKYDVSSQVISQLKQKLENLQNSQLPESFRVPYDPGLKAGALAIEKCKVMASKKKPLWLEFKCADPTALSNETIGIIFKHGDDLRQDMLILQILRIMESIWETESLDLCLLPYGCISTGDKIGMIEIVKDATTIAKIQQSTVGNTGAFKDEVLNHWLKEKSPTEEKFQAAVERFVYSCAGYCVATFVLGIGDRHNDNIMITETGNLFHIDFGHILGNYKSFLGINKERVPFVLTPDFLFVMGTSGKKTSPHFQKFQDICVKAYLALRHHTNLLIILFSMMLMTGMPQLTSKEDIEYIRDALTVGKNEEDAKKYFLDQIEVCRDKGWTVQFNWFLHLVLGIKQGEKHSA

[9] = target: PI3K-beta (Homo sapiens, UniProt P42338); test: PI3K-β assay (ADP-Glo); format: biochemical
Sequence of PI3K-beta (P42338 whole entry): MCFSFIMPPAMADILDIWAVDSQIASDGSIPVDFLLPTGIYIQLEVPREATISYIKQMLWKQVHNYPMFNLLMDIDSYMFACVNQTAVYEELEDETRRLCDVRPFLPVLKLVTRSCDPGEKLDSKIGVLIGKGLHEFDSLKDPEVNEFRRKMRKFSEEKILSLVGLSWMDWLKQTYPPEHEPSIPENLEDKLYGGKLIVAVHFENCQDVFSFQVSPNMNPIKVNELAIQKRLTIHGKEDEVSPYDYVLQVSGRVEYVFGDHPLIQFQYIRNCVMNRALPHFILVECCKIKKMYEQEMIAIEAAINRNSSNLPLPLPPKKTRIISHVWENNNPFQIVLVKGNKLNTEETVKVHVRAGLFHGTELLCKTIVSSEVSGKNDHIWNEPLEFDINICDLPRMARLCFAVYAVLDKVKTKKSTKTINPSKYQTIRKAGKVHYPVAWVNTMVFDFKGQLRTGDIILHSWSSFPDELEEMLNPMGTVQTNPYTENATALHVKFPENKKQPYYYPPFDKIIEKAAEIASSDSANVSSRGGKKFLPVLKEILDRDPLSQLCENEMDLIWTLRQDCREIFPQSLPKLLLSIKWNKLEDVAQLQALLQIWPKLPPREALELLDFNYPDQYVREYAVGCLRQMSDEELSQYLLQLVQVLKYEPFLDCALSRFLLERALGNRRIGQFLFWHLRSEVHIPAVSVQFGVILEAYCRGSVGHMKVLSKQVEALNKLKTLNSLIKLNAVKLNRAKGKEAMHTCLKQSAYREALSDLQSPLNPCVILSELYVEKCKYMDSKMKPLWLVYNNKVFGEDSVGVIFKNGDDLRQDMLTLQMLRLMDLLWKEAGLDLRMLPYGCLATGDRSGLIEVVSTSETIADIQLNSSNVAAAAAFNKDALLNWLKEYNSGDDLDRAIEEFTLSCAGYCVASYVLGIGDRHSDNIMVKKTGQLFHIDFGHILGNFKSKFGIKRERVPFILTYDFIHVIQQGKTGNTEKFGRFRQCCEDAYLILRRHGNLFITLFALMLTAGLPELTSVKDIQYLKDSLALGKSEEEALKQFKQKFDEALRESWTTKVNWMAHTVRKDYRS
Sequence of PI3K-beta (P27986 whole entry partner): as the sequence (P27986 whole entry partner, canonical isoform) above

[10] = target: PI3K-delta (Homo sapiens, UniProt O00329); test: PI3K-δ assay (ADP-Glo); format: biochemical
Sequence of PI3K-delta (O00329 whole entry): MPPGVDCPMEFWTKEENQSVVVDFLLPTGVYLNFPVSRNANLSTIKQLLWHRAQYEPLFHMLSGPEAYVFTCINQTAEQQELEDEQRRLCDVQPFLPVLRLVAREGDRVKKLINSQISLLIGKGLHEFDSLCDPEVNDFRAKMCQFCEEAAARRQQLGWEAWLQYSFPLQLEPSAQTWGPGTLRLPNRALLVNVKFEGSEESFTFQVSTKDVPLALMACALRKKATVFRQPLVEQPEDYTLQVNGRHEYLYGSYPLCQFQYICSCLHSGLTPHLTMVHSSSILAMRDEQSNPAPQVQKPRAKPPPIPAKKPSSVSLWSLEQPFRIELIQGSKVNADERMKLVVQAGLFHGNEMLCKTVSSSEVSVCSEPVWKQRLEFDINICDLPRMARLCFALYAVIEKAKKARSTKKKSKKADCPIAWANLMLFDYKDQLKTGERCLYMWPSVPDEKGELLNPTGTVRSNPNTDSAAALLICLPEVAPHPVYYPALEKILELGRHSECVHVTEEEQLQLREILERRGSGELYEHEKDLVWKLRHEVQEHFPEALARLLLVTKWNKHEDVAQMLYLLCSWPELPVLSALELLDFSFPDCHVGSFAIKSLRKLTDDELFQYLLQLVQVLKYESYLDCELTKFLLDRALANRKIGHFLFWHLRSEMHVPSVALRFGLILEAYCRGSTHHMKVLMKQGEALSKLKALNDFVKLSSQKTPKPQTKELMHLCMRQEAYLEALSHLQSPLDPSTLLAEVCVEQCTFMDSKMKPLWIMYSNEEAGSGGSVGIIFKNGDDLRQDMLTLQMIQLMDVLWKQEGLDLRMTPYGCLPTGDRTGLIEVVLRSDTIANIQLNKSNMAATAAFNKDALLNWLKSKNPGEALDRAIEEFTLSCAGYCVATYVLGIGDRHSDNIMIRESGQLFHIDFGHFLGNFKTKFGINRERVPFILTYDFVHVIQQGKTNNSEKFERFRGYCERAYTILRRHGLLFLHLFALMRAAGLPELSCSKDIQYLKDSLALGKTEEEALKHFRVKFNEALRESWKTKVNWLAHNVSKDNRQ
Sequence of PI3K-delta (P27986 whole entry partner): as the sequence (P27986 whole entry partner, canonical isoform) above

[11] = via glucuronidation of phenolic hydroxyl group; cited from earlier work
[12] = water (aqueous, pH 7), pH = 7, read-out: Aqueous Solubility (μg/ml) at pH = 7
[13] = water, pH = 7, read-out: Aqueous Solubility (μg/ml) at pH = 7
[14] = water, in H2O at pH = 7, read-out: Solubility μg/ml in H2O at pH = 7

## O=c1[nH]cc(F)c(=O)[nH]1 [5-Fluorouracil, reference compound]
[1]
  Mortality: 0/7
[2]
  Day 13 % Tumor Growth Inhibition: 50.04%
  Day 13 Avg. tumor weights: 929.42 mg

## CC(C)(C)OC(=O)NC1CCN(c2nc(N3CCOCC3)c3oc4ncccc4c3n2)CC1 [Compound 6, tert-butyl (1-(4-morpholinopyrido [3′,2′:4,5]furo[3,2-d]pyrimidin-2-yl)piperidin-4-yl)carbamate]
[3]
  inhibition at 0.5 µM: 67.3%
[4]; [12]
  solubility: 10 µg/mL (≈ 22 µM)

## CCOC(=O)c1ccc(NC(=O)NC2CCN(c3nc(N4CCOCC4)c4oc5ncccc5c4n3)CC2)cc1 [Compound 8, ethyl 4-(3-(1-(4-morpholinopyrido[3′,2′:4,5]furo[3,2-d]pyrimidin-2-yl)piperidin-4-yl)ureido)benzoate]
[3]
  % PI3Kα inhibition at 500 nM: 85%
  inhibition at 0.5 µM: > 70%
[3]; read-out: IC50 for PI3K (μM) PI3K-α
  IC50: 0.008 µM
[4]; [12]
  solubility: 10 µg/mL (≈ 18.3 µM)
[5]
  IC50: 8 µM
[6]
  IC50: 8 µM
[7]
  IC50: 8 µM

## CN1CCN(C(=O)c2ccc(NC(=O)NC3CCN(c4nc(N5CCOCC5)c5oc6ncccc6c5n4)CC3)cc2)CC1 [Compound 10, 1-(4-(4-methylpiperazine-1-carbonyl)phenyl)-3-(1-(4-morpholinopyrido[3′,2′:4,5]furo[3,2-d]pyrimidin-2-yl)piperidin-4-yl)urea]
[3]
  % PI3Kα inhibition at 500 nM: 76.8%
  inhibition at 0.5 µM: > 70%
[3]; read-out: IC50 for PI3Kα
  IC50: 0.08 µM
[4]; pH = 7
  Aqueous Solubility (μg/ml) at pH = 7: 400 μg/ml
[4]; [13]
  solubility: > 200 µg/mL
[5]
  IC50: 8 µM
[6]
  IC50: 40 µM
[7]
  IC50: 9 µM

## CC(C)(C)OC(=O)NC1CCN(c2nc(N3CCOCC3)c3sccc3n2)CC1 [Compound 16, tert-butyl (1-(4-morpholino thieno[3,2-d]pyrimidin-2-yl)piperidin-4-yl)carbamate]
[3]
  inhibition at 0.5 µM: < 0%

## CC(C)(C)OC(=O)NC1CCN(c2nc(N3CCOCC3)c3sc(C(C)(C)O)cc3n2)CC1 [Compound 17, tert-butyl (1-(6-(2-hydroxypropan-2-yl)-4-morpholinothieno[3,2-d]pyrimidin-2-yl)piperidin-4-yl)carbamate]
[3]
  % PI3Kα inhibition at 500 nM: 81%
  inhibition at 0.5 µM: > 70%
[4]; [12]
  solubility: 200 µg/mL (≈ 419 µM)
[4]; [13]
  solubility: > 200 µg/mL

## CCOC(=O)c1ccc(NC(=O)NC2CCN(c3nc(N4CCOCC4)c4sccc4n3)CC2)cc1 [Compound 21, ethyl 4-(3-(1-(4-morpholinothieno[3,2-d]pyrimidin-2-yl)piperidin-4-yl)ureido)benzoate]
[3]
  inhibition at 0.5 µM: 59%
[4]; [12]
  solubility: 120 µg/mL (≈ 235 µM)

## CCc1ccc(NC(=O)NC2CCN(c3nc(N4CCOCC4)c4sccc4n3)CC2)cc1 [Compound 22, 1-(4-ethylphenyl)-3-(1-(4-morpholinothieno[3,2-d]pyrimidin-2-yl)piperidin-4-yl)urea]
[8]
  IC50: > 20 µM
[8]; PI3K-α versus PI3K-γ
  Fold-selectivity for PI3K-α with respect to other isoforms PI3K-γ: >500 fold
[8]; up to 20 μM
  % inhibition of PI3K-γ: 0%
[3]
  inhibition at 0.5 µM: 74%
[3]; read-out: IC50 for PI3Kα
  IC50: 0.04 µM
[9]
  IC50: > 20 µM
[9]; PI3K-α versus PI3K-β
  Fold-selectivity for PI3K-α with respect to other isoforms PI3K-β: >500 fold
[9]; up to 20 μM
  % inhibition of PI3K-β: 0%
[4]; [14]
  solubility: 800 µg/mL (≈ 1710 µM)
[2]
  Day 13 % Tumor Growth Inhibition: 32.7% and 32.73%
  Day 13 Avg. tumor weights: 1128.4 mg
[10]
  Fold-selectivity for PI3K-α with respect to other isoforms PI3K-δ: >500 fold
  IC50: > 20 µM
[10]; up to 20 μM
  % inhibition of PI3K-δ: 0%
[5]
  IC50: 5 µM
[6]
  IC50: 4 µM
[7]
  IC50: 7 µM

## Cc1ccccc1NC(=O)NC1CCN(c2nc(N3CCOCC3)c3sccc3n2)CC1 [Compound 23, 1-(1-(4-morpholinothieno[3,2-d]pyrimidin-2-yl)piperidin-4-yl)-3-(o-tolyl)urea]
[3]
  inhibition at 0.5 µM: 68%
[4]; [12]
  solubility: 20 µg/mL (≈ 44.2 µM)

## O=C(Nc1ccc(C(F)(F)F)cc1)NC1CCN(c2nc(N3CCOCC3)c3sccc3n2)CC1 [Compound 24, 1-(1-(4-morpholinothieno[3,2-d]pyrimidin-2-yl)piperidin-4-yl)-3-(4-(trifluoromethyl)phenyl)urea]
[3]
  % PI3Kα inhibition at 500 nM: 70%
  inhibition at 0.5 µM: > 70%
[5]
  IC50: 9 µM
[6]
  IC50: 8 µM
[7]
  IC50: 13 µM

## O=C(Nc1ccccc1F)NC1CCN(c2nc(N3CCOCC3)c3sccc3n2)CC1 [Compound 25, 1-(2-fluorophenyl)-3-(1-(4-morpholinothieno[3,2-d]pyrimidin-2-yl)piperidin-4-yl)urea]
[3]
  % PI3Kα inhibition at 500 nM: 76%
  inhibition at 0.5 µM: > 70%
[4]; [12]
  solubility: 200 µg/mL (≈ 438 µM)
[4]; [13]
  solubility: > 200 µg/mL

## CCOC(=O)c1ccc(NC(=O)NC2CCN(c3nc(N4CCOCC4)c4sc(C(C)(C)O)cc4n3)CC2)cc1 [Compound 26, ethyl 4-(3-(1-(6-(2-hydroxypropan-2-yl)-4-morpholinothieno[3,2-d]pyrimidin-2-yl)piperidin-4-yl)ureido)benzoate]
[3]
  inhibition at 0.5 µM: 40%

## COc1ccc(S(=O)(=O)NC2CCN(c3nc(N4CCOCC4)c4sccc4n3)CC2)cc1 [Compound 27, 4-methoxy-N-(1-(4-morpholinothieno[3,2-d]pyrimidin-2-yl)piperidin-4-yl)benzenesulfonamide]
[3]
  inhibition at 0.5 µM: 33%

## CC(C)(C)c1ccc(S(=O)(=O)NC2CCN(c3nc(N4CCOCC4)c4sccc4n3)CC2)cc1 [Compound 28, 4-(tert-butyl)-N-(1-(4-morpholinothieno[3,2-d]pyrimidin-2-yl)piperidin-4-yl)benzenesulfonamide]
[3]
  inhibition at 0.5 µM: 56%
[4]; [12]
  solubility: 20 µg/mL (≈ 38.8 µM)

## O=S(=O)(NC1CCN(c2nc(N3CCOCC3)c3sccc3n2)CC1)c1ccc2ccccc2c1 [Compound 30, N-(1-(4-morpholinothieno [3,2-d]pyrimidin-2-yl)piperidin-4-yl)naphthalene-2-sulfonamide]
[3]
  inhibition at 0.5 µM: 54.8%
[4]; [12]
  solubility: 5 µg/mL (≈ 9.81 µM)

## CS(=O)(=O)N1CCN(Cc2cc3nc(-c4cccc5[nH]ncc45)nc(N4CCOCC4)c3s2)CC1 [GDC-0941, reference compound]
[4]; [14]
  solubility: 16 µg/mL (≈ 31.1 µM)

## Oc1cccc(-c2nc(N3CCOCC3)c3oc4ncccc4c3n2)c1 [PI-103, reference compound]
[4]; [14]
  solubility: 5 µg/mL (≈ 14.4 µM)
[11]
  metabolism: rapid metabolism

Reference: patent US10696688B2, “Fused pyrimidines as isoform selective phosphoinositide-3-kinase-alpha inhibitors and process for preparation thereof” (Council of Scientific and Industrial Research, priority 2015, dated 2020)
